From US6218396A, “Substituted pyridino arylpiperazines useful in the treatment of benign prostatic hyperplasia” (Orth-McNeil Pharmaceutical, Inc., priority 1999, dated 2001)

What was measured:
α1a-AR = target: T1, α1a-AR (Homo sapiens, UniProt P35348); assay: receptor binding assay, [125I]-HEAT, membranes of COS cells expressing α1a-AR; details: [125I]-HEAT 50 pM, human α1a-AR in COS cell membranes; unit 'nanomolar'
T1 construct: expressed in transfected cells; host or cells: COS cells (pcDNA3, transient DEAE-dextran transfection; membranes)
T1 sequence (P35348 1-466): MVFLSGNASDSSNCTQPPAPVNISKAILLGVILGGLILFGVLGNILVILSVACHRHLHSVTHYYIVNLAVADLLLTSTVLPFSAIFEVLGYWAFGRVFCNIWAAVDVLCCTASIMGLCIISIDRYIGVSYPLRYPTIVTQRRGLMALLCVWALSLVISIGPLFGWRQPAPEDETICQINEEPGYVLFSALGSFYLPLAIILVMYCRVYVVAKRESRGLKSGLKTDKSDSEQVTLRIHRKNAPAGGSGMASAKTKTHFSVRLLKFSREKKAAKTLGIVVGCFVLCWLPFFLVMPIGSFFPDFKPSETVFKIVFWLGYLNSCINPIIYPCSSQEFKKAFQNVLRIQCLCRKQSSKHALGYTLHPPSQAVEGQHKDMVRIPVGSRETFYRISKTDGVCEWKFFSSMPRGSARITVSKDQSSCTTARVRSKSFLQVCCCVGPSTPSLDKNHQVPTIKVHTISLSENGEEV
From the text: (§1) The DNA sequences of the three cloned human α1-AR subtypes have been published. […] We used published DNA sequence information to design primers for use in RT-PCR amplification of each subtype to obtain cloned cDNAs. Human poly A+ RNA was obtained from commercially available sources and included hippocampus and prostate samples, sources which have been cited in the literature. For the primary screen a radio ligand binding assay was used which employed membrane preparations from cells expressing the individual cloned receptor cDNAs. Radiolabeled ligands with binding activity on all three subtypes (non-selective) are commercially available ([125I]-HEAT, [3H]-prazosin).
(§2) Each α1 receptor subtype was cloned from poly A+ RNA by the standard method of reverse transcription-polymerase chain reaction (RT-PCR). The following sources of polyA+ RNA were used for the cloning of the α1 receptor subtypes: α1a -AR, human hippocampus and prostate, α1b -AR, human hippocampus, α1d -AR, human hippocampus. The resulting cDNAs were cloned into the pcDNA3 mammalian expression vector (Invitrogen Corp., San Diego Calif.). Each DNA was sequenced for verification and to detect any possible mutations introduced during the amplification process. Any deviation in sequence from the published consensus for each receptor subtype was corrected by site-directed mutagenesis.
(§3) The three α1-AR subtypes (a, b, d) were transfected into COS cells using a standard DEAE-dextran procedure with a chloroquine shock. In this procedure, each tissue culture dish (100 mm) was inoculated with 3.5×10^6 cells and transfected with 10 μg of DNA. Approximately 72 hours post-transfection, the cells were harvested and COS membranes were prepared. Transfected COS cells from 25 plates (100 mm) were scraped and suspended in 15 mL of TE buffer (50 mM Tris-HCl, 5 mM EDTA, pH7.4). The suspension was disrupted with a homogenizer. It was then centrifuged at 1000×g for 10 minutes at […]. The supernatant was centrifuged at 34,500×g for 20 minutes at 4° C. The pellet was resuspended in 5 mL TNE buffer (50 mM Tris-HCl, 5 mM EDTA, 150 mM NaCl, pH7.4). The resulting membrane preparation was aliquoted and stored at -70° C. The protein concentration was determined following membrane solubilization with TritonX-100.
(§4) The ability of each compound to bind to each of the α1-AR subtypes was assessed in a receptor binding assay. [125I]-HEAT, a non-selective α1-AR ligand, was used as the radiolabeled ligand. Each well of a 96-well plate received: 140 μL TNE, 25 μL [125I]-HEAT diluted in TNE (50,000 cpm; final concentration 50 pM), 10 μL test compound diluted in DMSO (final concentration 1 pM-10 μM), […] COS cell membrane preparation expressing one of the three α1-AR subtypes (0.05-0.2 mg membrane protein). The plate was incubated for 1 hour at room temperature and the reaction mixtures were filtered through a Packard GF/C Unifilter filter plate. The filter plate was dried for 1 hour in a vacuum oven. Scintillation fluid ([…]) was added to each well, and the filter plate was counted in a Packard Topcount scintillation counter. Data was analyzed using GraphPad Prism software.

α1b-AR = target: T2, α1b-AR (Homo sapiens, UniProt P35368); assay: receptor binding assay, [125I]-HEAT, membranes of COS cells expressing α1b-AR; details: [125I]-HEAT 50 pM, human α1b-AR in COS cell membranes; unit 'nanomolar'
T2 construct: expressed in transfected cells; host or cells: COS cells (pcDNA3, transient DEAE-dextran transfection; membranes)
T2 sequence (P35368 1-520): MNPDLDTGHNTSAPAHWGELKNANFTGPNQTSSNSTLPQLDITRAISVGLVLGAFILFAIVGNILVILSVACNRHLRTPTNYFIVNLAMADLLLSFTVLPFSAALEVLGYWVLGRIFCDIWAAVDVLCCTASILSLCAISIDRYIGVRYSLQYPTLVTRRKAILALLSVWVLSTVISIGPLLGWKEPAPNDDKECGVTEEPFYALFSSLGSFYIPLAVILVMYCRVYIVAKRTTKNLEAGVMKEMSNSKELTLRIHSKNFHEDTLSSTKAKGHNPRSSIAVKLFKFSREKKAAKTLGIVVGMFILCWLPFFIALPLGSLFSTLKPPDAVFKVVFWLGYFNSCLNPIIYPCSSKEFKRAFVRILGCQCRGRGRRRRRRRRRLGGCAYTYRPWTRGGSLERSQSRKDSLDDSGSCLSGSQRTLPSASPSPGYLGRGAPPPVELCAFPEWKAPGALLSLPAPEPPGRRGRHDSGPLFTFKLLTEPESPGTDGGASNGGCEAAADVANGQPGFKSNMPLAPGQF
From the text: as §1, §2, §3, §4

α1d-AR = target: T3, α1d-AR (Homo sapiens, UniProt P25100); assay: receptor binding assay, [125I]-HEAT, membranes of COS cells expressing α1d-AR; details: [125I]-HEAT 50 pM, human α1d-AR in COS cell membranes; unit 'nanomolar'
T3 construct: expressed in transfected cells; host or cells: COS cells (pcDNA3, transient DEAE-dextran transfection; membranes)
T3 sequence (P25100 1-572): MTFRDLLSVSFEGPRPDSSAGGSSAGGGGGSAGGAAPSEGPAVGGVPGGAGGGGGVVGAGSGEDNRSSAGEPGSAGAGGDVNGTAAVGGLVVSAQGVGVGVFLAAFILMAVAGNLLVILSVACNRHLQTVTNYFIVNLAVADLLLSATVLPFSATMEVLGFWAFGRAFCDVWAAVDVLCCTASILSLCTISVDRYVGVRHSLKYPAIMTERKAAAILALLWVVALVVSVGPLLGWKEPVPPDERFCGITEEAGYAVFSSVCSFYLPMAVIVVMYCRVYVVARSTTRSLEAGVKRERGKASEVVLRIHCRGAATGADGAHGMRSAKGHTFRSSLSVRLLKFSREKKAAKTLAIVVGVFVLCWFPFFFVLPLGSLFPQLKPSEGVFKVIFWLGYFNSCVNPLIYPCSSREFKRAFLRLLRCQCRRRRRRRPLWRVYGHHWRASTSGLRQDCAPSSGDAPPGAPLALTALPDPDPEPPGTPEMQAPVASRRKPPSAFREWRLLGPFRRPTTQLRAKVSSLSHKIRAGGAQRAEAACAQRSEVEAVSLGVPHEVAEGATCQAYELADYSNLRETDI
From the text: as §1, §2, §3, §4

5α-reductase = details: cited from earlier work
symptomatic BPH = details: human, in vivo; cited from earlier work

Compound | IC50 (α1a-AR) | IC50 (α1b-AR) | IC50 (α1d-AR) | inhibition of 5α-reductase (in words) (5α-reductase) | effectiveness in treating symptomatic BPH (in words) (symptomatic BPH) | serum and tissue concentrations of dihydrotestosterone (in words) (symptomatic BPH) | time for effects to become evident (symptomatic BPH)
COc1ccc(Oc2ncccc2C(=O)NCC(O)CN2CCN(c3ccccc3OC(C)C)CC2)cc1 (stereo not shown) [Compound 10] | 2.4 nM | 1910 nM | 131 nM | – | – | – | –
Cc1ccc(Oc2ncccc2C(=O)NCC(O)CN2CCN(c3ccccc3OC(C)C)CC2)cc1 (stereo not shown) [Compound 41] | 0.52 nM | 928 nM | 21 nM | – | – | – | –
Cc1ccc(Oc2ncccc2C(=O)NCCCN2CCN(c3ccccc3OC(C)C)CC2)cc1 [Compound 29] | 0.27 nM | > 2000 nM | 43 nM | – | – | – | –
CC(C)Oc1ccccc1N1CCN(CC(O)CNC(=O)c2cccnc2Oc2ccc(Cl)c(Cl)c2)CC1 (stereo not shown) [Compound 30] | 2 nM | 2250 nM | 56 nM | – | – | – | –
COC(CNC(=O)c1cccnc1Oc1ccccc1)CN1CCN(c2ccccc2OC(C)C)CC1 (stereo not shown) [Compound 16] | 2.4 nM | 1360 nM | 21 nM | – | – | – | –
COc1ccccc1Oc1ncccc1C(=O)NCC(O)CN1CCN(c2ccccc2OC(C)C)CC1 (stereo not shown) [Compound 40] | 1.7 nM | 580 nM | 2.2 nM | – | – | – | –
CC(C)Oc1ccccc1N1CCN(C[C@H](O)CNC(=O)c2cccnc2Oc2ccccc2)CC1 [Compound 35] | 10.2 nM | 889 nM | 314 nM | – | – | – | –
CC(C)Oc1ccccc1N1CCN(CC(=O)CNC(=O)c2cccnc2Oc2ccccc2)CC1 [Compound 17] | 63 nM | 887 nM | 546 nM | – | – | – | –
CC(C)Oc1ccccc1N1CCN(CC(O)CNC(=O)c2cccnc2Oc2ccc(Cl)cc2)CC1 (stereo not shown) [Compound 42] | 1 nM | 838 nM | 74 nM | – | – | – | –
CC(C)Oc1ccccc1N1CCN(CC(O)CNC(=O)c2cccnc2Oc2ccc(F)cc2)CC1 (stereo not shown) [Compound 36] | 1.5 nM | 1180 nM | 148 nM | – | – | – | –
CC(C)Oc1ccccc1N1CCN(CC(O)CNC(=O)c2cccnc2Oc2ccc(C(C)(C)C)cc2)CC1 (stereo not shown) [Compound 33] | 3.3 nM | > 2000 nM | 78 nM | – | – | – | –
CC(C)Oc1ccccc1N1CCN(CC(O)CNC(=O)c2cccnc2Oc2ccccc2)CC1 (stereo not shown) [Compound 3] | 1.5 nM | 909 nM | 211 nM | – | – | – | –
CC(C)Oc1ccccc1N1CCN(CC(O)CNC(=O)c2cccnc2Oc2cccc(N(C)C)c2)CC1 (stereo not shown) [Compound 38] | 2 nM | 972 nM | 56 nM | – | – | – | –
CC(C)Oc1ccccc1N1CCN(CCCNC(=O)c2cccnc2Oc2ccccc2)CC1 [Compound 5] | 0.64 nM | 151 nM | 40 nM | – | – | – | –
CC(C)Oc1ccccc1N1CCN(CC(O)CNC(=O)c2cccnc2Sc2ccc(Cl)cc2)CC1 (stereo not shown) [Compound 12] | 2.6 nM | 806 nM | 299 nM | – | – | – | –
CC(C)Oc1ccccc1N1CCN(C[C@@H](O)CNC(=O)c2cccnc2Oc2ccc(Cl)cc2)CC1 [Compound 27] | 0.86 nM | 791 nM | 57 nM | – | – | – | –
Cc1ccc(Oc2ncccc2C(=O)NC[C@@H](O)CN2CCN(c3ccccc3OC(C)C)CC2)cc1 [Compound 28] | 25 nM | 361 nM | 969 nM | – | – | – | –
COc1ncccc1C(=O)NCC(O)CN1CCN(c2ccccc2OC(C)C)CC1 (stereo not shown) [Compound 13] | 3.5 nM | > 2000 nM | 191 nM | – | – | – | –
CC(C)Oc1ccccc1N1CCN(CC(O)CNC(=O)c2cccnc2Nc2ccccc2)CC1 (stereo not shown) [Compound 31] | 25 nM | 736 nM | 25 nM | – | – | – | –
CC(C)Oc1ccccc1N1CCN(CC(O)CNC(=O)c2cccnc2Oc2cccc(Cl)c2)CC1 (stereo not shown) [Compound 37] | 0.91 nM | 952 nM | 180 nM | – | – | – | –
CC(C)(C)NC(=O)[C@H]1CC[C@H]2[C@@H]3CC[C@H]4NC(=O)C=C[C@]4(C)[C@H]3CC[C@]12C [finasteride] | – | – | – | potent 5α-reductase inhibitor | only moderately effective | marked decrease | 6-12 months
CCOc1ccccc1N1CCN(CC(O)CNC(=O)c2cccnc2Oc2ccccc2)CC1 (stereo not shown) [Compound 34] | 9.1 nM | 132 nM | 206 nM | – | – | – | –
COc1ccccc1N1CCN(CC(O)CNC(=O)c2cccnc2Oc2ccccc2)CC1 (stereo not shown) [Compound 32] | 30 nM | 1570 nM | 147 nM | – | – | – | –
Cc1ccccc1Oc1ncccc1C(=O)NCC(O)CN1CCN(c2ccccc2OC(C)C)CC1 (stereo not shown) [Compound 39] | 1.1 nM | 730 nM | 1.7 nM | – | – | – | –
CC(C)Oc1ccccc1N1CCN(C[C@@H](O)CNC(=O)c2cccnc2Oc2ccccc2)CC1 [Compound 8] | 0.76 nM | 668 nM | 81 nM | – | – | – | –
Cc1ccc(Oc2ncccc2C(=O)NC[C@H](O)CN2CCN(c3ccccc3OC(C)C)CC2)cc1 [Compound 18] | 0.51 nM | 290 nM | 50 nM | – | – | – | –
CC(C)Oc1ccccc1N1CCN(CC(O)CNC(=O)c2cccnc2Nc2cccc(C(F)(F)F)c2)CC1 (stereo not shown) [Compound 11] | 25 nM | 1020 nM | 79 nM | – | – | – | –
CC(C)Oc1ccccc1N1CCN(CC(O)CNC(=O)c2cccnc2Sc2ccccc2)CC1 (stereo not shown) [Compound 43] | 2 nM | 1220 nM | 70 nM | – | – | – | –
